# Assay results reported in the NIST ThermoML archive (doi:10.1016/j.jct.2012.03.022).
# ± gives the expanded uncertainty stated by the source.
# Details: Liquid, Closed cell (Static) method
smiles,measurement,setting,value
"CC(F)F [1,1-difluoroethane]",vapor or sublimation pressure,258.15 K,148.6 ± 1 kPa
same,vapor or sublimation pressure,268.15 K,219.4 ± 1.1 kPa
same,vapor or sublimation pressure,278.15 K,314.1 ± 1.1 kPa
same,vapor or sublimation pressure,288.15 K,437.8 ± 1.2 kPa
